Read-outs that look alike come from different tables or passages of the source.
Assays:
A172 = test: MTT proliferation / cytotoxicity assay; assay type: cell-based, human; conditions: glioblastoma cell line
Protocol: (§1) Cell culture. The human cancer cell lines A172, A375, A2780 and U251 were purchased from the American Type Culture Collection. All cells were routinely maintained in DMEM containing 10% fetal bovine serum (Omega Scientific), at 37°C in 5% C02.
(§2) Proliferation assay Inhibition of cell A172, A375, A2780 and U251 cell proliferation was assessed by a MTT assay (MTT = Thiazolyl Blue Tetrazolium Bromide) . Cells were inoculated into 96-well microtiter plates containing 0.5% fetal calf serum and incubated at 37°C, 5% CO2, 95% air, and 100% relative humidity for 24 h prior to addition of testing compounds. Following compounds addition, the plates were incubated for an additional 72 h before processing to measure the cell population. Each compound was tested at eight different concentrations in triplicate, as was a control sample. Growth inhibition of 50% (IC50) is calculated by analysis of the data in Prizm3.4 software.
(§3) Table 8 lists IC50 values for inhibition of growth of several cancer cell lines, including the glioblastoma cell lines A172 and U251, measured in a MTT cytotoxicity assay. Table 8. Data of cytotoxicity assay (MTT) for several cancer cell lines, IC50 [µM]

A2780 = test: MTT proliferation / cytotoxicity assay; assay type: cell-based, human
Protocol: as §1, §2, §3

U251 = test: MTT proliferation / cytotoxicity assay; assay type: cell-based, human; conditions: glioblastoma cell line
Protocol: as §1, §2, §3

A375 = test: MTT proliferation / cytotoxicity assay; assay type: cell-based, human
Protocol: as §1, §2, §3

cKIT = cKIT (Homo sapiens, UniProt P10721); test: Kinase inhibition assay (ELISA); assay type: biochemical; conditions: 60 µM ATP
Protocol: (§4) To determine the interaction of our compounds with tyrosine kinases: PDGFR-α, cKIT, PDGFR-β, VEGFR-2 we used enzyme-linked immunosorbent assay (ELISA).
(§5) Determination plates preparation: The plates are processed by neutravidine for 2 h at 30°C. After washing thrice with TBS/0.1% Tween-20 and blocking with 1% BSA/TBS for 1 h at room temperature (RT) 96-well microtiter plates were washed thrice with TBS/0.1% Tween-20 again.
(§6) Reaction: After addition test compounds (in DMSO, DMSO final concentration - 5%) to reaction buffer (20 mM HEPES, pH 7.5, 15 mM MgCl2, 3 mM MnCl2, 2 mM DTT, 0.2 mM Na3VO4, 0.005% Triton X-100; PDGFR-α,: 0.05 µg/ml, 0.5 µg/ml Poly(G,T)-biotin; PDGFR-β: 0.05 µg/ml, 1 µg/ml Poly(G,T)-biotin; c-KIT: 0.03 µg/ml, 0.15 µg/ml Poly(G,T)-biotin; VEGFR-2: 0.07 µg/ml, 0.05 µg/ml Poly(G,T)-biotin) and preincubation of reaction for 10 min at RT and intensive agitation, ATP solution (PDGFR-α, - 1 µM, PDGFR-β - 0.5 µM, c-KIT - 60 µM, VEGFR-2: - 1.5 µM ATP in reaction buffer per well) was added to initiate reaction. Following incubation of mixture for 1 h at 30°C and intensive agitation the reaction was stopped by stop solution (20 mM HEPES, pH 7.5, 50 mM EDTA).
(§7) Kinase activity determination: The reaction mixture was transferred to determination plate. After mix incubation for 1 h at RT and intensive agitation the plates were washed thrice with TBS/0.1% Tween-20. Following mouse monoclonal 0.05 µg/ml Anti-p-Tyr (PY20) HRP antibodies (Santa Cruz Biotechnology) in PBS/BSA were added for 1 h at RT and intensive agitation. After washing, antibody binding was detected by tetramethylbenzidine (TMB) color development (Sigma). Measurement of A450 nm was carried out after addition of H2SO4

PDGFR-α = PDGFR-α (Homo sapiens, UniProt P16234); test: Kinase inhibition assay (ELISA); assay type: biochemical; conditions: 1 µM ATP
Protocol: as §4, §5, §6, §7

VEGFR-2 = VEGFR-2 (Homo sapiens, UniProt P35968); test: Kinase inhibition assay (ELISA); assay type: biochemical; conditions: 1.5 µM ATP
Protocol: as §4, §5, §6, §7

[1] = In vivo PK study, determination of brain-to-plasma ratio; conditions: mouse, SHK mice, PO dosing 5mg/kg, 20% water solution of HPβCD, read-out: brain-to-plasma concentration ratio
Protocol: Male SHK mice (22-25 g) were dosed with 5 mg/kg of related compounds as a single injection via oral gavage (formulated in 20% water solution of HPβCD). Blood samples and whole brains were collected from three mice at each of eight collection time points of 0.05, 0.25, 0.5, 1, 2, 4, 8 and 24 h post dose. Plasma was collected from blood samples, and whole brain samples were homogenized in three volumes of water. Both tissues were analyzed for concentrations of related compounds by liquid chromatography-mass spectrometry (LC-MS/MS). Table 9. brain-to-plasma concentration ratios in SHK mice after PO dosing 5mg/kg for several selected examples

Chain of cKIT (P10721 26-976): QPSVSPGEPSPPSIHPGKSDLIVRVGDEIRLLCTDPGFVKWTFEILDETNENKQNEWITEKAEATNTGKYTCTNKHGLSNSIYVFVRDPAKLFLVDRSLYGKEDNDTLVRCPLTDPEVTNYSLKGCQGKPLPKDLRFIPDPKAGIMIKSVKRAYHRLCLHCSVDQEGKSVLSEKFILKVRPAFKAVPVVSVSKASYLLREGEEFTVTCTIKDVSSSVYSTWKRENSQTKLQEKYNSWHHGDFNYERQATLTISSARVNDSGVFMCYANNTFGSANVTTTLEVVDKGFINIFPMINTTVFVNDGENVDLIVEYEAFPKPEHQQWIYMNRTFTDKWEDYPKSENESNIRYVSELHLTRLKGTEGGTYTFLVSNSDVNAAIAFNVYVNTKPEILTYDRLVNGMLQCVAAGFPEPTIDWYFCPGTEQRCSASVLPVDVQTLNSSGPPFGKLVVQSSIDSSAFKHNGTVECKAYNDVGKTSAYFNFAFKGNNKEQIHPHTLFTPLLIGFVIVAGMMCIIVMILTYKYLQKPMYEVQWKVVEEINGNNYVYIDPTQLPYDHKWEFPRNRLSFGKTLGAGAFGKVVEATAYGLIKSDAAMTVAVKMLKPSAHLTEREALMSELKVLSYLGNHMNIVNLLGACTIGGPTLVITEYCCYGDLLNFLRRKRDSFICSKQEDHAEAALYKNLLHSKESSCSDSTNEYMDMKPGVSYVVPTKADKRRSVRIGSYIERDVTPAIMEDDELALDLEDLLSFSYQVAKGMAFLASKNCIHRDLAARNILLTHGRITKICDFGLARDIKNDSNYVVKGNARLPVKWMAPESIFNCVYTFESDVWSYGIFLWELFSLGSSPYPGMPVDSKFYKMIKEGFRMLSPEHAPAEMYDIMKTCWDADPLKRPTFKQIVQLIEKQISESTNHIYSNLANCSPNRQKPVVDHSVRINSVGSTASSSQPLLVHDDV
Chain of VEGFR-2 (P35968 20-1356, species assumed): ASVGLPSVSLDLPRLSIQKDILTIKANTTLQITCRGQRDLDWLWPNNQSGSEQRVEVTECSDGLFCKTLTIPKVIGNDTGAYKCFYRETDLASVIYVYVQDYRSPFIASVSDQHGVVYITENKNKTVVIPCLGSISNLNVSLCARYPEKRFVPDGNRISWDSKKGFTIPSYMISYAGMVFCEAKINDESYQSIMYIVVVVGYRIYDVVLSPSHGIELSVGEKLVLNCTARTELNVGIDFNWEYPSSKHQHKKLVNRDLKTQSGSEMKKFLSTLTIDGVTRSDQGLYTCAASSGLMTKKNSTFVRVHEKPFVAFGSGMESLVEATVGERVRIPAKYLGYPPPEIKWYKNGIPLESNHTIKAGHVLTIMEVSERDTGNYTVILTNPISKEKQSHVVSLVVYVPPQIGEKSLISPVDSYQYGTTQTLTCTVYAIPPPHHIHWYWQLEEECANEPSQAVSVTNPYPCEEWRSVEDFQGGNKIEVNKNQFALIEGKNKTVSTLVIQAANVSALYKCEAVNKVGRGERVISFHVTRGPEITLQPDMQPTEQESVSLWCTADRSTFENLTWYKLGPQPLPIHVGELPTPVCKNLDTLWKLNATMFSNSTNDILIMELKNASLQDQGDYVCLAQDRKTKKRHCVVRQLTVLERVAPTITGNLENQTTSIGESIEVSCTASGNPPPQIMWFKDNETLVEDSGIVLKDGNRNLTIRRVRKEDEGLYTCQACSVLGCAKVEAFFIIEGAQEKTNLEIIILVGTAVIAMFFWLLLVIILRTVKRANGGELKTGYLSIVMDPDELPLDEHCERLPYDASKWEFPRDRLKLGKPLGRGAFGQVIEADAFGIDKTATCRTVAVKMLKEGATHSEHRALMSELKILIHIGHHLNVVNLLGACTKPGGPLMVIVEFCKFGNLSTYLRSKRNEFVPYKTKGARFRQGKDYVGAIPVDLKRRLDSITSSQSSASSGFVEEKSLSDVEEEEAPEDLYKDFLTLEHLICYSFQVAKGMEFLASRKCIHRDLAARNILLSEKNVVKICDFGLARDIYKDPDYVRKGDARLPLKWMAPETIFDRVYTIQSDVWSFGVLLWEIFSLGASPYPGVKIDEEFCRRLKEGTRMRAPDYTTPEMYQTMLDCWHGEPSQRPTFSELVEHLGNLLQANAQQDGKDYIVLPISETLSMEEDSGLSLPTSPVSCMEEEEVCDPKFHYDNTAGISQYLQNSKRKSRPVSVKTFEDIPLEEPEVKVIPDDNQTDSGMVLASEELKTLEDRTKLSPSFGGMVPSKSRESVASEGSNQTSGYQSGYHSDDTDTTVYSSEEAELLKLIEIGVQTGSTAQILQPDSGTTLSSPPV
Chain of PDGFR-α (P16234 24-1089, species assumed): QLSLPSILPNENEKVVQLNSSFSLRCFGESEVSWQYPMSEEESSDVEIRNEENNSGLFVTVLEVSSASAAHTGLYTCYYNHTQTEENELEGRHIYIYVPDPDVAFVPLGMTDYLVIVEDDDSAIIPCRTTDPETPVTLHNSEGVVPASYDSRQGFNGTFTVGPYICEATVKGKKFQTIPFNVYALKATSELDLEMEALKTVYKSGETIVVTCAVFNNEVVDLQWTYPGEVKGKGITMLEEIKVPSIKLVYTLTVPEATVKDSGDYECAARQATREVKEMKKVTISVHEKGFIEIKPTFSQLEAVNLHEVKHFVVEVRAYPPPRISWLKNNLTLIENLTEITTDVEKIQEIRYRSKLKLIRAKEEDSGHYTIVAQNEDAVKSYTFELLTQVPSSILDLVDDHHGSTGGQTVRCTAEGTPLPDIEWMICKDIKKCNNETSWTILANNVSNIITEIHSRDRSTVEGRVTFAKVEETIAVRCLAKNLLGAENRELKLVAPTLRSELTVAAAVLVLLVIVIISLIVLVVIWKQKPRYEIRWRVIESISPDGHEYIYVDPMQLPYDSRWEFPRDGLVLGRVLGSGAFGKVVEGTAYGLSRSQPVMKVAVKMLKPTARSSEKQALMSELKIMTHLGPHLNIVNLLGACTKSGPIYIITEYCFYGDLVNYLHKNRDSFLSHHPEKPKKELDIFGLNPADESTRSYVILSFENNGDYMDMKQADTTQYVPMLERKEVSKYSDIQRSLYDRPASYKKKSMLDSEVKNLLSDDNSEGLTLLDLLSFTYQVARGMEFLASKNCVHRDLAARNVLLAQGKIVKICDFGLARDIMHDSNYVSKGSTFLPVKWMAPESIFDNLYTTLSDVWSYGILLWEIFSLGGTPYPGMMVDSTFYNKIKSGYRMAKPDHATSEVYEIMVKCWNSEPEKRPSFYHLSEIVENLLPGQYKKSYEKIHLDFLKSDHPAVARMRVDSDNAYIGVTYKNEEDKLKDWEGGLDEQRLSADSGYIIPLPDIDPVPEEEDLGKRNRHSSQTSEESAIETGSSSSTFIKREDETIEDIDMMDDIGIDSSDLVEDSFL

Row | IC50 (cKIT) | IC50 (PDGFR-α) | IC50 (VEGFR-2) | Kp ([1]; male, brain/plasma) | Molecule | IC50 (A172; Homo sapiens, A 172, 72 h) | IC50 (A2780; Homo sapiens, A2780, 72 h) | IC50 (U251; Homo sapiens, U-251, 72 h) | IC50 (A375; Homo sapiens, A-375, 72 h) | Kp ([1]; brain) | IC50 (A172; 72 h) | IC50 (A2780; 72 h) | IC50 (U251; 72 h) | IC50 (A375; 72 h)
1 | > 10 nM | > 10 nM | > 100 nM | – | Fc1ccc(-c2cnc(Nc3cccc(CC4CCCNCC4)n3)s2)cc1 (centres unmarked) [Example 006, (6-Azepan-4-ylmethyl-pyridin-2-yl)-[5-(4-fluoro-phenyl)-thiazol-2-yl]-amine] | > 1 µM | ≤ 1 µM | > 1 µM | ≤ 1 µM | – | – | – | – | –
2 | > 10 nM | > 10 nM | > 100 nM | – | CC(=O)N1CCCC(Cc2cccc(Nc3ncc(-c4ccc(F)cc4)s3)n2)CC1 (centres unmarked) [Example 007, 1-(4-{6-[5-(4-Fluoro-phenyl)-thiazol-2-ylamino]-pyridin-2-ylmethyl}-azepan-1-yl)-ethanone] | > 1 µM | > 1 µM | > 1 µM | > 1 µM | – | – | – | – | –
3 | > 10 nM | < 10 nM | > 10 nM | – | CC(=O)N1CCOCC(Cc2ccnc(Nc3ncc(-c4ccc(F)cc4)s3)c2)C1 (centres unmarked) [Example 012, 1-(6-{2-[5-(4-Fluoro-phenyl)-thiazol-2-ylamino]-pyridin-4-ylmethyl}-[1,4]oxazepan-4-yl)-ethanone] | > 1 µM | > 1 µM | > 10 µM | > 1 µM | – | – | – | – | –
4 | > 100 nM | < 10 nM | > 10 nM | – | c1ccc(-c2cnc(Nc3cc(CCC4CCCN4)ccn3)s2)cc1 (centres unmarked) [Example 015, (5-Phenyl-thiazol-2-yl)-[4-(2-pyrrolidin-2-yl-ethyl)-pyridin-2-yl]-amine] | > 1 µM | > 1 µM | > 10 µM | > 1 µM | – | – | – | – | –
5 | > 100 nM | < 10 nM | 32 nM | – | c1ccc(-c2cnc(Nc3cc(C4CCCNC4)ccn3)s2)cc1 (centres unmarked) [Example 028, (1,2,3,4,5,6-Hexahydro-[3,4']bipyridinyl-2'-yl)-(5-phenyl-thiazol-2-yl)-amine] | > 1 µM | > 1 µM | > 10 µM | > 10 µM | – | – | – | – | –
6 | < 10 nM | < 10 nM | > 10 nM | 1.79 | OCC(O)CN1CCC(c2ccnc(Nc3ncc(-c4ccc(F)cc4)s3)c2)CC1 (centres unmarked) [Example 034, 3-{2'-[5-(4-Fluoro-phenyl)-thiazol-2-ylamino]-3,4,5,6-tetrahydro-2H-[4,4']bipyridinyl-1-yl}-propane-1,2-diol] | > 1 µM | > 10 µM | – | – | – | – | – | – | –
7 | < 10 nM | < 10 nM | > 10 nM | – | OCCN1CCC(c2ccnc(Nc3ncc(-c4cccc(F)c4)s3)c2)CC1 [Example 037, 2-{2'-[5-(3-Fluoro-phenyl)-thiazol-2-ylamino]-3,4,5,6-tetrahydro-2H-[4,4']bipyridinyl-1-yl}-ethanol] | > 10 µM | > 1 µM | > 1 µM | > 10 µM | – | – | – | – | –
8 | > 10 nM | < 10 nM | > 10 nM | – | OCCN1CCC(c2ccnc(Nc3ncc(-c4ccc(F)c(F)c4)s3)c2)CC1 [Example 038, 2-{2'-[5-(3,4-Difluoro-phenyl)-thiazol-2-ylamino]-3,4,5,6-tetrahydro-2H-[4,4']bipyridinyl-1-yl}-ethanol] | ≤ 1 µM | > 10 µM | > 1 µM | > 1 µM | – | – | – | – | –
9 | > 10 nM | < 10 nM | > 10 nM | – | OCCN1CCC(c2ccnc(Nc3ncc(-c4cc(F)cc(F)c4)s3)c2)CC1 [Example 039, 2-{2'-[5-(3,5-Difluoro-phenyl)-thiazol-2-ylamino]-3,4,5,6-tetrahydro-2H-[4,4']bipyridinyl-1-yl}-ethanol] | > 1 µM | > 10 µM | > 10 µM | > 1 µM | – | – | – | – | –

The next lines start with the molecule.

Row | Molecule | IC50 (cKIT) | IC50 (PDGFR-α) | IC50 (VEGFR-2) | Kp ([1]; male, brain/plasma) | IC50 (A172; Homo sapiens, A 172, 72 h) | IC50 (A2780; Homo sapiens, A2780, 72 h) | IC50 (U251; Homo sapiens, U-251, 72 h) | IC50 (A375; Homo sapiens, A-375, 72 h) | Kp ([1]; brain) | IC50 (A172; 72 h) | IC50 (A2780; 72 h) | IC50 (U251; 72 h) | IC50 (A375; 72 h)
10 | CS(=O)(=O)N1CCC(Cc2ccnc(Nc3ncc(-c4ccc(F)cc4)s3)c2)CC1 [Example 005, [5-(4-Fluoro-phenyl)-thiazol-2-yl]-[4-(1-methanesulfonyl-piperidin-4-ylmethyl)-pyridin-2-yl]-amine] | > 10 nM | < 10 nM | > 10 nM | – | > 1 µM | > 1 µM | > 10 µM | > 1 µM | – | – | – | – | –
11 | CN1CCCC(Cc2cccc(Nc3ncc(-c4ccc(F)cc4)s3)n2)CC1 (centres unmarked) [Example 008, [5-(4-Fluoro-phenyl)-thiazol-2-yl]-[6-(1-methyl-azepan-4-ylmethyl)-pyridin-2-yl]-amine] | > 10 nM | > 10 nM | > 1000 nM | – | > 10 µM | > 1 µM | > 1 µM | > 1 µM | – | – | – | – | –
12 | Fc1ccc(-c2cnc(Nc3cc(CC4CCCC5CNCC54)ccn3)s2)cc1 (centres unmarked) [Example 017, [5-(4-Fluoro-phenyl)-thiazol-2-yl]-[4-(octahydro-isoindol-4-ylmethyl)-pyridin-2-yl]-amine] | < 10 nM | < 10 nM | > 10 nM | 0.28 | > 1 µM | < 1 µM | – | – | – | – | – | – | –
13 | c1ccc(-c2cnc(Nc3cccc(CC4CC5CCC(C4)N5)n3)s2)cc1 (centres unmarked) [Example 022, [6-(8-Aza-bicy-clo[3.2.1]oct-3-ylmethyl)-pyridin-2-yl]-(5-phenyl-thiazol-2-yl)-amine] | > 10 nM | > 10 nM | > 100 nM | – | > 1 µM | ≤ 1 µM | > 1 µM | ≤ 1 µM | – | – | – | – | –
14 | COC(=O)C1CC(Cc2ccnc(Nc3ncc(-c4ccccc4)s3)c2)CC1N (centres unmarked) [Example 023, 2-Amino-4-[2-(5-phenyl-thiazol-2-ylamino)-pyridin-4-ylmethyl]-cyclopentanecar-boxylic acid methyl ester] | < 10 nM | < 10 nM | > 10 nM | – | > 1 µM | > 1 µM | – | – | 0.78 | – | – | – | –
15 | OCCN1CCC(c2cc(Nc3ncc(-c4ccccc4)s3)ccn2)CC1 [Example 033, 2-[4-(5-Phenyl-thiazol-2-ylamino)-3',4',5',6'-tetrahydro-2'H-[2,4']bipyridinyl-1'-yl]-ethanol] | > 100 nM | > 10 nM | > 100 nM | – | > 10 µM | > 10 µM | > 10 µM | > 10 µM | – | – | – | – | –
16 | OCCN1CCC(c2ccnc(Nc3ncc(-c4ccccc4F)s3)c2)CC1 [Example 036, 2-{2'-[5-(2-Fluoro-phenyl)-thiazol-2-ylamino]-3,4,5,6-tetrahydro-2H-[4,4']bipyridinyl-1-yl}-ethanol] | < 10 nM | < 10 nM | > 10 nM | – | > 10 µM | > 1 µM | > 1 µM | > 1 µM | – | – | – | – | –
17 | [5-(4-Fluoro-phenyl)-thiazol-2-yl]-[6-(octahydro-isoindol-4-ylmethyl)-pyridin-2-yl]-amine [Example 021] | > 10 nM | > 10 nM | > 100 nM | – | – | – | – | – | – | > 1 µM | > 1 µM | > 1 µM | > 1 µM

Source: patent EP2719696A1, “NOVEL KINASE INHIBITORS” (Asinex Limited, priority 2011, dated 2012)
